According to patent US12138291B2, “Hemostatic composition and hemostatic method using hemostatic composition” (3-D MATRIX, LTD., priority 2015, dated 2024):

Columns and labels:
[1] = Storage elastic modulus of peptide solutions before application (frequency sweep test); type: physicochemical; conditions: shear stress 1 Pa
Procedure: Frequency sweep tests were conducted from 1 rad/sec to 10 rad/sec at a shear stress of 1 Pa, and the storage elastic modulus at 10 rad/sec was selected as data. As for a viscosity before gelling, tests were conducted for a soaking time of 2 min by loading each peptide solution between 20 mm plates with a gap distance of 500 um.

[2] = system: bleeding site of the porcine liver; assay: Hemostasis of oozing bleeding created by abrading the porcine liver, usual application vs spray application; type: in vivo, pig; conditions: for hemostasis outcome: peptide 1.5% (FIG. 9)
Excerpt: Oozing bleeding was created by abrading the porcine liver using a metal file. A self-organizing peptide solution was applied to the bleeding by usual application or spray application and evaluated for its hemostatic effect and applied amount.
• Animal species: pig • Breed: LWD • Sex: female • The number of animals introduced: 2 • Age in days at the time of introduction: any Body weight at the time of introduction: 50 kg Institute receiving the animals: Narita experimental laboratory of NAS Laboratory Co., Ltd. • Distributor of the animals: Ishige Tikusan • Acclimatization period: approximately 7 days after introduction • Quarantine: the absence of abnormalities was confirmed by quarantine under clinical observation at the time of introduction and during the acclimatization period. • Individual discrimination: ear tag <Rearing Conditions> (1) Rearing environment
Atropine sulfate was intramuscularly administered at 0.05 mg/kg (dosing volume: 0.1 mL/kg) to each animal. Approximately 30 minutes later, 20 mg/kg (dosing volume: 0.4 mL/kg) of ketamine hydrochloride and 4 mg/kg (dosing volume: 0.2 mL/kg) of xylazine hydrochloride were mixed and intramuscularly administered thereto. Each anesthetic was introduced by the intramuscular administration to the ear root using a disposable syringe (Terumo Corp.) attached with an 18 G injection needle (Terumo Corp.). Then, a tracheal tube (TOP intratracheal tube, TOP Corp.) was intubated, and the anesthesia was maintained with isoflurane using an inhalation anesthesia apparatus SUBARU-KJ02 (Mikasa Kantou Syoukai Co., Ltd.) and a mechanical ventilator (COMPOS β-EV, Metran Co., Ltd.). The perioperative isoflurane concentration was set to 1 to 3%, and the amount of oxygen was set to 2 L/min. The intrapulmonary pressure of the mechanical ventilator was set to 15 cm H2O, and the respiratory rate was set to 15 times/min. Each animal was placed supine on an operating table and covered with a sterilized drape.
• 1. Each completely anesthetized pig was laparotomized by abdominal midline incision using a surgical knife and an electric surgical knife to expose the liver. • 2. Oozing bleeding was created by abrading the liver using a metal file. • 3. Each test substance was applied to the bleeding inclined plane by usual application (*1) or spray application (*2). • 4. The time from after the end of application to the end of assessment of the completion of hemostasis was measured using a stopwatch (*3). The amount of each test substance used until the end of the test was recorded. • *1: A syringe was packed with the peptide solution (test substance), and the peptide solution was pushed out of a nozzle at the tip of the syringe and thereby applied to the subject (see the syringe of FIG. 1). • 2: A syringe (equivalent to that of FIG. 1) packed with the peptide solution (test substance) was loaded in a spray gun, and compressed air was blown to a nozzle at the tip of the syringe using a compressor so that the peptide solution pushed out of the nozzle was sprayed to the subject. The spray pressure was generally 0.5 to 1.5 [kgf/cm2], though differing depending on the viscosity of each test substance, the status of bleeding, and the distance to the application site. • 3: If bleeding was not weakened after initial application (if it was judged that this condition would not lead to hemostasis), additional application was appropriately performed. The time of completion of initial application was defined as the start of measurement, and the time of completion of hemostasis assessment was defined as the end of measurement. <Results>

[3] = peptide concentrations of 1.5% or higher (1.5%, 2.0%, 2.5%)

IEIKIEIKIEIKI [Peptide No. 2]
Storage elastic modulus G′ (Pa) (mean: N = 3) ([1]; peptide 1.0% by weight, pH 3.0, at 10 rad/sec): 349.0 Pa
Storage elastic modulus G′ (Pa) (mean: N = 3) ([1]; peptide 1.5% by weight, pH 3.0, at 10 rad/sec): 2,309 Pa
amount of the solution applied until hemostasis, spray application group compared with usual application group ([2]; peptide concentration 1.0%): no significant difference
hemostasis completion time, spray application group compared with usual application group ([2]; peptide concentration 1.0%): no significant difference
amount of the solution applied until hemostasis, spray application group compared with usual application group ([2]; peptide concentration 1.5%): smaller amount of the solution applied until hemostasis
hemostasis completion time, spray application group compared with usual application group ([2]; peptide concentration 1.5%): evidently resulted in a shorter hemostasis completion time

RLDLRLALRLDLR (Ac-RLDLRLALRLDLR-NH2) [Peptide No. 3, self-assembling peptide, solution in purified water]
Storage elastic modulus G′ (Pa) (mean: N = 3) ([1]; peptide 1.0% by weight, pH 7.5, at 10 rad/sec): 75 Pa
Storage elastic modulus G′ (Pa) (mean: N = 3) ([1]; peptide 1.5% by weight, pH 7.5, at 10 rad/sec): 239 Pa
Storage elastic modulus G′ (Pa) (mean: N = 3) ([1]; peptide 2.0% by weight, pH 7.5, at 10 rad/sec): 439 Pa
hemostasis outcome ([2]; spray application): succeeded in hemostasis
hemostasis outcome ([2]; usual application): failed in hemostasis

RADARADARADARADA [Peptide No. 1]
Storage elastic modulus G′ (Pa) (mean: N = 3) ([1]; peptide 1.0% by weight, pH no treatment, at 10 rad/sec): 30 Pa
Storage elastic modulus G′ (Pa) (mean: N = 3) ([1]; peptide 1.5% by weight, pH no treatment, at 10 rad/sec): 75 Pa
Storage elastic modulus G′ (Pa) (mean: N = 3) ([1]; peptide 2.0% by weight, pH no treatment, at 10 rad/sec): 141 Pa
Storage elastic modulus G′ (Pa) (mean: N = 3) ([1]; peptide 2.5% by weight, pH no treatment, at 10 rad/sec): 503 Pa
amount of the solution applied until hemostasis, spray application group compared with usual application group ([2]; peptide concentration 1.0%): smaller amount of the solution applied until hemostasis
hemostasis completion time, spray application group compared with usual application group ([2]; peptide concentration 1.0%): tendencies of a shorter hemostasis completion time
amount of the solution applied until hemostasis, spray application group compared with usual application group [2, 3]: smaller amount of the solution applied until hemostasis
hemostasis completion time, spray application group compared with usual application group [2, 3]: evidently resulted in a shorter hemostasis completion time
